BindingDB's records for doi:10.1021/acs.jmedchem.8b01497 ("Sapienza" Universit&#163, 2018)

Molecular target: T1, Heparanase (Homo sapiens, UniProt Q9Y251)
T1 sequence (Q9Y251 whole entry): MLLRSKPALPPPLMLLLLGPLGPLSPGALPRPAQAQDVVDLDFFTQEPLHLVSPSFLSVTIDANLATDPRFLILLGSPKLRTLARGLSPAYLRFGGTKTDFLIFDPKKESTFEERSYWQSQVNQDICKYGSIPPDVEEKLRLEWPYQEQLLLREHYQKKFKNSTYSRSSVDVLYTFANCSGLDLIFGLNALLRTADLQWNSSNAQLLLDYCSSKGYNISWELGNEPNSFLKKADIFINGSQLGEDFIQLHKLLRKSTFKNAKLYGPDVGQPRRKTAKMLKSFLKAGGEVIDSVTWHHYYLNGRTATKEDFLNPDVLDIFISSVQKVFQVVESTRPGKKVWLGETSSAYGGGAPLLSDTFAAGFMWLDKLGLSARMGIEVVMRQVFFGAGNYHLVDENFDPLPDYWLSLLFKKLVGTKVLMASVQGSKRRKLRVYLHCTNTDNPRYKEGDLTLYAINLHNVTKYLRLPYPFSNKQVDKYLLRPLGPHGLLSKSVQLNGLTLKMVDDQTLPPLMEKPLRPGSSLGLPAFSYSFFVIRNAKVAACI
Assay: Inhibition of recombinant HPSE (unknown origin) using fondaparinux as substrate incubated for 3 hrs in absence of light by WST1 assay

IC50: 5 nM
SMILES: CC(=O)N[C@H]1[C@@H](O[C@@H](CO)C(O[C@H](O)CO)C(=O)O)O[C@H](CO)[C@@H](O[C@@H]2OC(C(=O)O)[C@@H](O[C@H]3O[C@H](CO)[C@@H](O)[C@H](O)[C@H]3NC(C)=O)[C@H](O)[C@H]2OS(=O)(=O)O)[C@@H]1O (stereo partly specified)
